In patent US9138494B2, “Radiolabeled PDE10A ligands” (AbbVie Inc., priority 2011, dated 2015):

Tests used:
PDE10A = PDE10A (Homo sapiens, UniProt Q9Y233); experiment: PDE enzymatic inhibition assay (HTRF cAMP kit); type: biochemical; settings: recombinant PDE10, 20 nM substrate, 60 minutes at 29° C.
Experimental: Recombinant PDE proteins were used in in vitro enzymatic reaction for measurement of PDE activity. […] The enzymatic activity of PDEs was determined by cAMP measurement kit from CisBio (IBA) using HTRF technology. The PDE enzymatic reaction was carried out in assay buffer (20 mM Tris-HCl pH7.5, 10 mM MgCl2, 0.1% bovine serum albumin) containing enzyme and substrate. The PDE enzymes concentration ranged from 10 pM-250 pM, depending on each enzyme's specific activity. […] The inhibitory effect of compound was determined by incubating various concentration of inhibitor in the enzymatic assay. […] Next, the compound at varying concentration was mixed with PDE enzyme. The reaction was initiated by addition of cyclic nucleotide substrate, and incubated for 60 minutes at 29° C. The reaction was stopped by addition of lysis buffer from assay kit. The cAMP-d2 and anti-cAMP cryptate in the lysis buffer detected the level of cAMP left from the PDE hydrolysis reaction. […] Thus, IC50 value of inhibitor can be obtained by plotting inhibitor concentration against PDE activity at that concentration.

[1] = Rat PK (0.05 mg/kg, iv), free brain concentration and free B/P; type: in vivo
P-gp = P-gp (Homo sapiens (Human), UniProt P08183); experiment: MDCK-MDR1 assay, Efflux Ratio (P-gp); type: in vitro ADME; settings: dog; MDCK-MDR1 cells
[2] = log D determined by shake flask method; type: physicochemical; settings: read-out: SF log D
Rat hepatocyte half-life = type: in vitro ADME; settings: hepatocytes; rat (R); read-out: Hepatocyte T1/2
[3] = Human hepatocyte half-life; type: in vitro ADME; settings: for half-life: hepatocytes, human (H), read-out: Hepatocyte T1/2
[4] = Monkey microsome half-life; type: in vitro ADME; settings: monkey microsomes; read-out: Monkey Microsome T1/2
rats [5] = settings: cited from earlier work
rats [6] = settings: cited from earlier work; remark: listed apart in the source
rats [7] = settings: cited from earlier work; remark: listed apart in the source

Sequence of PDE10A (Q9Y233 whole entry, looked up): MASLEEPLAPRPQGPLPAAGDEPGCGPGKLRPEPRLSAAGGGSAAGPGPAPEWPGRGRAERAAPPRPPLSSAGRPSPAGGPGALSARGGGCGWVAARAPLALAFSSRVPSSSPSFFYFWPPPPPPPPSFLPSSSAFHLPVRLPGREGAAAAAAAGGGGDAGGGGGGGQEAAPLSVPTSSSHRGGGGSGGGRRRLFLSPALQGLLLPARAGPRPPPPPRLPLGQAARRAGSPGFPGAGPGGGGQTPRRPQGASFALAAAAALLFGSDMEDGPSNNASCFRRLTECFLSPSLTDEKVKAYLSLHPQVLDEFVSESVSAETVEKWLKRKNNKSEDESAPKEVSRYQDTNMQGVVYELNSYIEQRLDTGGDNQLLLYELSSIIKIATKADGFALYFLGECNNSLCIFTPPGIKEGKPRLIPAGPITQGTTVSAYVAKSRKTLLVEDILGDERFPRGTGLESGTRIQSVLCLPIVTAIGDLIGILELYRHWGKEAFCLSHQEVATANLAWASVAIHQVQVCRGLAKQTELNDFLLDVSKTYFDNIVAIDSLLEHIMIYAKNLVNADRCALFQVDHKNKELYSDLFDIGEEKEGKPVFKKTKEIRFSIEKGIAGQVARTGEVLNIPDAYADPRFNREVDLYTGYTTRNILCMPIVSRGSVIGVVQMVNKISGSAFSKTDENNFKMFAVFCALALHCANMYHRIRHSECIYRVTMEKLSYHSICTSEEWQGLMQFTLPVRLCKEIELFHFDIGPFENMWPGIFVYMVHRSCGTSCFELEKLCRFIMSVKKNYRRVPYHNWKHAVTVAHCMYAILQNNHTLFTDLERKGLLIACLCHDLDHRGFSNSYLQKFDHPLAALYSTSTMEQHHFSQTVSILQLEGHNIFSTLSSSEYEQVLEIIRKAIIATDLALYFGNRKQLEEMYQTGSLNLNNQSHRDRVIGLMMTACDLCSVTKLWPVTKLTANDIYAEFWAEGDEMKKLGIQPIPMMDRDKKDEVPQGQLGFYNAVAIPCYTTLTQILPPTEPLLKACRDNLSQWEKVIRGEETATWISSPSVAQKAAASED
Sequence of P-gp (P08183 whole entry): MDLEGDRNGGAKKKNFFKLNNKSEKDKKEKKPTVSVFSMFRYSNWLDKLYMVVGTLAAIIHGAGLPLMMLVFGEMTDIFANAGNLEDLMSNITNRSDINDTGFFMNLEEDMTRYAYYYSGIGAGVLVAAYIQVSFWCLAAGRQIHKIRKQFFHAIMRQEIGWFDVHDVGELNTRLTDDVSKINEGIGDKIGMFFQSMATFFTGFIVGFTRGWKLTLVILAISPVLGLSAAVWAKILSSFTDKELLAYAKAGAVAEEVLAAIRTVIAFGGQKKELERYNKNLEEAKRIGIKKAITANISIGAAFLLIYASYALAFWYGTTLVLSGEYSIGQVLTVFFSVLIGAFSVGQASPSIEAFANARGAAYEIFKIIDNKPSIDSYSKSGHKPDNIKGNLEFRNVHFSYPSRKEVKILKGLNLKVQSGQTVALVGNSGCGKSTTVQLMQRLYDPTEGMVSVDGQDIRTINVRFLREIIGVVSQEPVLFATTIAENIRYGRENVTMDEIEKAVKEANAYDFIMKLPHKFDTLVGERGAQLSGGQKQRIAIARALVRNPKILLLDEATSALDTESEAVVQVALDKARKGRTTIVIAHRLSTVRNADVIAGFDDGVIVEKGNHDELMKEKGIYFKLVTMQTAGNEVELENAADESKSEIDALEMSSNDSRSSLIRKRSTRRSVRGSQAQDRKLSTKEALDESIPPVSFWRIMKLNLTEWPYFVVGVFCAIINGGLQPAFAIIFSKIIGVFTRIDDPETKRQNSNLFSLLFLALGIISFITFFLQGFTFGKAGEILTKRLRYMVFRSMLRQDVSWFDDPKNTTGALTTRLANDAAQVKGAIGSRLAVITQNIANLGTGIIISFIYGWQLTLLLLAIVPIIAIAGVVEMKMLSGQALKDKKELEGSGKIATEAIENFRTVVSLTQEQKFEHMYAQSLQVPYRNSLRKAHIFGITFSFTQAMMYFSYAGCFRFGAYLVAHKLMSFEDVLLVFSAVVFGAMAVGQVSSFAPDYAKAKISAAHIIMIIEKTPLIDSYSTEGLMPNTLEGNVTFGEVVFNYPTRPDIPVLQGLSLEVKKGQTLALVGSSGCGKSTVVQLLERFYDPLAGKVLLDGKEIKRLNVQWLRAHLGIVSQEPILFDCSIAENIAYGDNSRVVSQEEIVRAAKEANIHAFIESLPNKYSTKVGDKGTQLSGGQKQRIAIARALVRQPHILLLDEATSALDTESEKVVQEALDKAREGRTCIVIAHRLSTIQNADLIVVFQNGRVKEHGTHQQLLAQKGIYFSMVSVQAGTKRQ

Cn1cc(-c2ccncc2)c(-c2ccc(OCc3ccc4ncccc4n3)cc2)n1 [Example 1, 2-((4-(1-methyl-4-(pyridin-4-yl)-1H-pyrazol-3-yl)phenoxy)methyl)-1,5-naphthyridine]
IC50 (PDE10A): 1.05 nM

FCCn1cc(-c2ccncc2)c(-c2ccc(OCc3ccc4ncccc4n3)cc2)n1 [Example 2, 2-((4-(1-(2-fluoroethyl)-4-(pyridin-4-yl)-1H-pyrazol-3-yl)phenoxy)methyl)-1,5-naphthyridine]
IC50 (PDE10A): 0.2 nM | Free B/P (ratio of free brain concentration divided by free plasma concentration) ([1]; 3 min after dose): 0.20 | Free [brain] ([1]; 3 min after dose): 0.692 ng/g | Free B/P (ratio of free brain concentration divided by free plasma concentration) ([1]; 5 min after dose): 0.13 | Free [brain] ([1]; 5 min after dose): 0.184 ng/g | efflux ratio (P-gp): 1.95 | logD [2]: 3.71 | half-life (Rat hepatocyte half-life): 12 min | half-life [3]: 79 min | human hepatocyte half-life compared with MP-10, JNJ-41510417 and Janssen B-3 ([3]; human Hepatocyte T1/2): significantly longer human hepatocyte half-lives | half-life [4]: 24 min

FCCn1cc(-c2ccncc2)c(-c2ccc(OCc3nc4ccccc4o3)cc2)n1 [Example 3, 2-((4-(1-(2-fluoroethyl)-4-(pyridin-4-yl)-1H-pyrazol-3-yl)phenoxy)methyl)benzo[d]oxazole]
IC50 (PDE10A): 4.7 nM

Cn1cc(-c2ccncc2)c(-c2ccc(OCc3nc4ccccc4c(=O)n3C)cc2)n1 [Example 4, 3-methyl-2-((4-(1-methyl-4-(pyridin-4-yl)-1H-pyrazol-3-yl)phenoxy)methyl)quinazolin-4(3H)-one]
IC50 (PDE10A): 2 nM

FCCn1cc(-c2ccncc2)c(-c2ccc(OCc3ncc4ccccc4n3)cc2)n1 [Example 9, 2-((4-(1-(2-fluoroethyl)-4-(pyridin-4-yl)-1H-pyrazol-3-yl)phenoxy)methyl)quinazoline]
IC50 (PDE10A): 0.18 nM

FCCn1cc(-c2ccncc2)c(-c2ccc(OCc3ccc4ccccc4n3)cc2)n1 [JNJ-41510417, reference compound]
IC50 (PDE10A): 0.63 nM

Cc1cnc(COc2ccc(-c3nn(CCF)cc3-c3ccncc3)cc2)c(C)c1 [Janssen B-3, reference compound]
IC50 (PDE10A): 0.98 nM

Cn1cc(-c2ccncc2)c(-c2ccc(OCc3ccc4ccccc4n3)cc2)n1 [MP-10, reference compound]
Free [brain] ([1]; 3 min after dose): 0.054 ng/g | Free [brain] ([1]; 5 min after dose): 0.098 ng/g | logD [2]: 4.28 | half-life (Rat hepatocyte half-life): 13 min | half-life [3]: 54.9 min | half-life [4]: 7 min

COc1ccc(Cc2nccc3cc(OC)c(OC)cc23)cc1OC [Papaverine, papaverine]
catalepsy on its own (rats [5]; alone): did not cause catalepsy on its own | effect on haloperidol-induced catalepsy (rats [5]; with haloperidol): potentiated the cataleptic effect | PCP-induced hyperactivity (rats [6]): reduced hyperactivity | reduction of amphetamine-induced hyperactivity (rats [7]): insignificant
